In US11369659B2, “Method of enhancing a brain or cognitive function” (Brainon Inc., priority 2015, dated 2022):

Key:
[1] = tested on: scopolamine-induced memory deterioration; assay: step-through passive avoidance test; type: in vivo; conditions: male ICR mice; peptide intraperitoneally 30 minutes before scopolamine; scopolamine 30 minutes before test; retention trial after 24 hours; compared with scopolamine-administered group
Procedure: Louis, Mo., USA). 4-week-old male ICR mice were purchased from Korean BioLink Co. (Chungbuk, Korea). After an adaptation period of one week, the mice were used in a test and all reagents were administered intraperitoneally. […] A passive avoidance test was performed in the same bright room and dark room. A floor of each room was formed in a shape in which 2-mm stainless steel rods were separated from each other at 1-cm intervals. Bright squares (20×20×20 cm) had 100-W bulbs. These squares were connected to a guillotine door. For an acquisition trial, the mouse was placed in the bright room after injection of the reagents and the door was opened after 10 seconds. When the mouse completely entered the dark room, the door was closed and electric shock was applied for 3 seconds. A retention trial was performed after 24 hours of the acquisition trial and the mouse was positioned in the bright room. A latency time of the acquisition and retention trials was measured by a time until the mouse entered the dark room of the box after the door was opened. The retention latency in the passive avoidance test represents a long-term memory function in rodents.

[2] = tested on: scopolamine-induced memory deterioration; assay: Y maze test; type: in vivo, ICR mice; conditions: for spontaneous alternation (memory improving effect): male ICR mice, peptide intraperitoneally 30 minutes before scopolamine, scopolamine 30 minutes before test, compared with scopolamine-administered group
Procedure: Scopolamine was purchased from Sigma-Aldrich (St. Louis, Mo., USA). 4-week-old male ICR mice were purchased from Korean BioLink Co. (Chungbuk, Korea). After an adaptation period of one week, the mice were used in a test and all reagents were administered intraperitoneally.
The mouse was placed at one end of a Y maze with a length of one branch of 30 cm, a width of 5 cm, and a height of 13 cm and the order of entry into each branch was recorded. Alternation was judged to be successful if the mouse sequentially entered three different branches. Spontaneous alternation was defined as Equation below. Spontaneous alternation (%)=the number of alternations/(total number of entries−2)×100

Compound | retention trial latency time (memory improving effect) [1] | spontaneous alternation (memory improving effect) [2] | spontaneous alternation (memory improving effect) ([2]; listed as sequence number 2) | mean of spontaneous alternations ([2]; scopolamine-injected group compared with normal saline group)
GAG [Peptide-2] | improved to be close to a normal group administered with saline | slight improvement | excellent effect as compared with a control group | 
AGAG [Peptide-3] | a little effect | excellent effect as compared with a control group |  | 
CN1[C@@H]2C[C@@H](OC(=O)[C@H](CO)c3ccccc3)C[C@H]1[C@@H]1O[C@@H]12 [scopolamine, Scopolamine, reference compound] |  |  |  | significantly lowered
